Results on 3 compounds are retold here after patent publication US20240002424A1, “HEXOSAMINE COMPOUNDS AND METHODS THEREOF” (National Institute of Immunology, priority 2021, published 2024).

Each structure is given as a SMILES string. Entries after “also recorded” stand apart in the source; their conditions may differ.

Holding throughout (type): cell-based, human
For experiment [1], the system named is HL-60 cells. The experiment is described as follows: SNA lectin binding on intact cells by flow cytometry. The conditions noted are these: 50 μM, 24 h.
The test system of experiment [2] is HL-60 cells. The experiment is described as follows: Far-western blot of total lysates with biotinylated MAL-II. The conditions noted are these: HL-60 lysates; 50 μM, 72 h. How it is done: After 72 h, cells were harvested and lyzed in RIPA buffer containing PIC. Protein concentration in the soluble fraction was estimated using Bradford assay, subjected to 10% SDS-PAGE, blotted onto nitrocellulose membranes (constant current 250 mA, 3 h, 4° C.). Membranes were blocked using 2% w/v gelatin (5.0 mL) in 0.1% PBS-T at room temperature. After 1h, membranes were incubated with either bMAL-II (1:2000, stock conc. 1.0 mg/mL) or bSNA (1:5000, stock conc. 2.0 mg/mL) in 0.1% PBS-T (5.0 mL) at room temperature. After 1 h, membranes were washed using 0.1% PBS-T (6×5.0 mL, 5.0 min), followed by incubation with HRPconjugated avidin (1:50000, stock conc. 2.0 mg/mL) in 0.1% PBS-T (5.0 mL). After 30 min, membranes were washed using 0.1% PBS-T (6×5.0 mL, 5.0 min). Blots were developed using enhanced chemiluminescence substrate and photographic films. Blots using anti-β-actin (as mentioned above) were performed in parallel as loading controls. At least two independent replicate experiments were performed.

The test system of experiment [3] is HL-60 cells. The experiment is described as follows: NeuAz expression by SPAAC with DBCO-Cy5 and flow cytometry, competition with 1c. The conditions noted are these: 50 μM with 1c 50 μM, 24 h. How it is done:
Estimation of NeuAz expression by 1c in the presence of peracetylated ManNAc analogues: Jurkat cells (3.0×10^5 cells/mL in 3.0 mL per well in 6-well plates) were incubated with (i) D, (ii) 1a, 1b, 1c, or 1d alone (50 mM) or (iii) 1a, 1b, or 1d (50 mM) in combination with 1c (50 mM). After 24 h, cells were harvested, washed using FSB, aliquoted to 5.0×10^5 cells per sample, and processed as mentioned above for estimation of NeuAz expression using DBCO-Cy5 ([…]). Experiments using HL-60 cells were performed using the same procedure.
Having confirmed metabolic acceptability in Jurkat cells, the compounds were tested on HL-60 (human acute myeloid leukemia) cells which are a reliable model for neutrophil adhesion. The effect on competitive suppression of NeuAz expression was studied using 1c as a reporter. HL-60 cells were treated with 1c either alone (50 μM) or in combination with ManNAc analogues (50 μM), including the straight chain derivatives, for 24 h followed by DBCO-Cy5 ligation. […] The decreasing ability of linear alkyl moieties (1d-1g), as a function of chain length, for suppression of NeuAz expression is in contrast to the cycloalkyl moieties. […] Similarly, 1a induced a reduction of 40% compared to only a 15% reduction by 1f.
(In general: Flow cytometry measures light scatter and fluorescence of single cells or particles in a stream.)

In experiment [4] the test system is HL-60 cells. The experiment is described as follows: Anti-CLA (HECA452) antibody binding by flow cytometry. The conditions noted are these: 50 μM, 24 h. How it is done:
Effect of HexNAc analogues on the expression of cutaneous lymphocyte antigen (CLA/HECA452) epitopes: HL-60 cells (3.0×10^5 cells/mL in 2.5 mL complete medium in 6-well plates) were treated with D, 1a, 1b, or 1d (50 mM), including untreated controls. After 24 h cells were harvested, washed in PBS (3×0.5 mL), aliquoted to 5.0×10^5 cells per sample, and incubated with rat anti-human CLA (HECA452) antibody (5.0 mg/mL) in PBS (50 mL) at 4° C. After 1.0 h, cells were washed with PBS (2×0.5 mL) and stained with AlexaFluor488-conjugated anti-rat IgM (10 mg/mL) in PBS (50 mL) at 4° C. After 1.0 h, cells were washed with PBS (2×0.5 mL), resuspended in PBS (0.2 mL) and treated with PI (2.5 mg/mL). Additionally control samples of cells treated with (i) isotype antibody followed by secondary antibody and (ii) only secondary antibody were prepared. Cells were gated on PI-negative population and analyzed by flow cytometry as given above. Two replicate samples were analyzed for each condition and each sample was counted twice by flow cytometry as mentioned above.

Experiment [5] concerns HL-60 cells. The experiment can be described thus: Western blot of total lysates for sLeX (CSLEX1) epitopes. The conditions noted are these: HL-60 total lysates; 50 μM, 72 h. How it is done:
Effect of ManNAc analogues on expression of CD15s epitopes: HL-60 cells (3.0×10^5 cells/mL in 10 mL complete medium in 10 cm diameter petri dishes) were incubated with D, 1a, 1b, 1d, 1e, 1f, or 1g (50 mM), along with untreated (U) controls. After 72 h, cells were harvested, washed with PBS (3×5.0 mL), and lysed in RIPA buffer (10^7 cells in […]), containing protease inhibitor cocktail (PIC, 1:100). Protein concentration of the soluble fraction was estimated using the Bradford assay. Proteins from total lysates were resolved by 7.5% SDS-PAGE and blotted onto nitrocellulose membrane (constant current of 250 mA for 3.0 h at 4° C.). Membranes were blocked using non-fat milk (NFM) (5.0% w/v) in PBS and incubated with primary antibodies (5.0 mL PBS containing 5.0% NFM) overnight at 4° C. Membranes were washed with 0.1% PBS-T (0.1% v/v tween-20 in PBS; 3×5.0 mL, five min each at room temperature) followed by incubation with appropriate fluorophore or horse radish peroxidase (HRP) conjugated secondary antibodies for 1.0 h at room temperature. Membranes were washed with 0.1% PBS-T (3×5.0 mL, five min each) and then either directly scanned using Amersham Typhoon fluorescence scanner or developed on photographic films after treatment with enhanced chemiluminescence reagents. At least two independent replicate experiments were performed for all the blots.
The primary and secondary antibodies employed, along with dilution and stock concentration, are given below: Primary antibodies: Anti-CD15s (CSLEX1; IgM, dilution 1:5000; stock concentration 0.5 mg/mL) Anti-CLA (HECA452; IgM, dilution 1:1000, stock concentration 0.5 mg/mL) […] (AC15, IgG, dilution 1:20000, stock concentration 2.2 mg/mL); and Secondary Antibodies: AlexaFluor488-conjugated anti-mouse IgM (1:10000, stock concentration 2.0 mg/mL) AlexaFluor488-conjugated anti-rat IgM (1:10000, stock concentration 0.5 mg/mL) HRP-conjugated anti-mouse IgG (1:10000, stock concentration 0.8 mg/mL) Cy5-conjugated donkey anti-mouse IgG (1:10000, stock concentration 1.4 mg/mL) AlexaFluorplus488-conjugated anti-mouse IgG (1:10000, stock conc. 2.0 mg/mL).
On the technique in general: Immunoblotting shows a protein as a band on a membrane.

Regarding `CC(=O)OC[C@H]1O[C@H](OC(C)=O)[C@@H](NC(=O)C2CC2)[C@@H](OC(C)=O)[C@@H]1OC(C)=O` [Compound 1a, 1,3,4,6-tetra-O-acetyl-2-cyclopropanoylamino-2-deoxy-α-D-mannopyranose], the “SNA binding on intact cells compared to untreated cells” value in the experiment on HL-60 cells [1] was “no significant differences”. The “MAL-II epitopes in lectin blot” value with HL-60 cells [2] is on record as “slight increase”. Besides, in the experiment with HL-60 cells [3], the “NeuAz expression with respect to 1c alone (100%)” value (from here on “NeuAz expression … (100%)”) came to 60% and the “reduction of NeuAz expression with respect to controls” value is on record as 40%. In the experiment on HL-60 cells [4], the “decrease in HECA-452 binding compared to untreated cells” value amounted to 40%. In addition, in the experiment with HL-60 cells [5], the “sLeX (CSLEX1) bands between 150-100 kDa in western blot” value (“sLeX” below) is “faint increase”.
As to `CC(=O)NC1C(OC(C)=O)OC(COC(C)=O)[C@@H](OC(C)=O)[C@@H]1OC(C)=O` (stereo partly drawn) [Compound 1d, 1,3,4,6-tetra-O-acetyl-2-acetylamino-2-deoxy-α/β-D-mannopyranose], the “SNA binding on intact cells compared to untreated cells” value in the experiment on HL-60 cells [1] is reported as “no significant differences”. Besides, in the experiment on HL-60 cells [2], the “MAL-II epitopes in lectin blot” value is “below detection limit”. In the experiment with HL-60 cells [3], the “NeuAz expression … (100%)” value stood at 40% and the “suppression of NeuAz expression (in words)” value is recorded as “Maximum suppression”. Besides, the “change in HECA-452 binding (in words)” value with HL-60 cells [4] is recorded as “moderate increase”. Besides, the “sLeX” value in the experiment on HL-60 cells [5] is listed as “negative for sLeX epitopes; also recorded: not detectable”.
For the compound `CC(=O)OC[C@H]1OC(OC(C)=O)[C@@H](NC(=O)C2CCC2)[C@@H](OC(C)=O)[C@@H]1OC(C)=O` (stereo partly drawn) [Compound 1b, (3S,4R,5S,6R)-6-(acetoxymethyl)-3-(cyclobutanecarboxamido)tetrahydro-2H-pyran-2,4,5-triyl triacetate], the “SNA binding on intact cells compared to untreated cells” value in the experiment on HL-60 cells [1] is “no significant differences”. The “MAL-II epitopes in lectin blot” value with HL-60 cells [2] is “slight increase”. In the experiment on HL-60 cells [3], the “NeuAz expression … (100%)” value came to 55% and the “reduction of NeuAz expression with respect to controls” value stood at 45%. Moreover, the “decrease in HECA-452 binding compared to untreated cells” value in the experiment with HL-60 cells [4] was 40%. For the same compound, in the experiment with HL-60 cells [5], the “sLeX” value is “Robust increase”.
